Earlier results as cited in patent US8236927B2, “Stabilizer molecule-depleted albumin solution” (Albutec GmbH, priority 2005, dated 2012).

Target: T1, binding site II (diazepam binding site) of the albumin (Homo sapiens, UniProt P02768)
T1 construct: commercial albumin, stabilized with 5.2 mmole of octanoate and 5.2 mmol of N-acetyl tryptophanate per mmol albumin; purchased
Conditions: N-acetyl tryptophan added stepwise up to a molar ratio of 1:1; reduced from 100%

T1 sequence (P02768 25-609): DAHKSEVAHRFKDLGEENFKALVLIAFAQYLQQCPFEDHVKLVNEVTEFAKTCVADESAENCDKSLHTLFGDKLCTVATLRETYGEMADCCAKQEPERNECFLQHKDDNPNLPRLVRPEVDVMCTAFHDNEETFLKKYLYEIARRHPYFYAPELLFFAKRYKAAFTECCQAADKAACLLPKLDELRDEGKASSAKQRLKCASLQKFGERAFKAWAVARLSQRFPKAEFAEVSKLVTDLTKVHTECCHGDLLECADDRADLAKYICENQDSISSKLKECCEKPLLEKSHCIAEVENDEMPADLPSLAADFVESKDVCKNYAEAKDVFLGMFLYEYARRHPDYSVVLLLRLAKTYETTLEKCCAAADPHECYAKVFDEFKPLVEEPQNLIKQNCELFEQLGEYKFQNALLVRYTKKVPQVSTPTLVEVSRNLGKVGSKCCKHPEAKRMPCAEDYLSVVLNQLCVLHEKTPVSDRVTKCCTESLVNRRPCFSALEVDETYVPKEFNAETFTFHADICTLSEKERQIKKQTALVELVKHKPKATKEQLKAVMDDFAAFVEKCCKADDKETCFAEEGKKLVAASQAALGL

binding capacity for dansylsarcosin of ligand-free albumin: about 60%
SMILES: CC(=O)N[C@@H](Cc1c[nH]c2ccccc12)C(=O)O [N-acetyl tryptophan]
